Reference: PubChem BioAssay (NCI)
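Assay format: 96-well plates, 48-hour exposure. Definition used: TGI = concentration required for complete inhibition of growth.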

Columns and labels:
Assay in all cases: growth of human tumour cells (NCI), 48 h
SK-OV-3 ovarian = tested on: SK-OV-3 ovarian
MALME-3M melanoma = tested on: MALME-3M melanoma
SN12C renal = tested on: SN12C renal
BT-549 breast = tested on: BT-549 breast
OVCAR-3 ovarian = tested on: OVCAR-3 ovarian
TK-10 renal = tested on: TK-10 renal
HS 578T breast = tested on: HS 578T breast
CCRF-CEM leukemia = tested on: CCRF-CEM leukemia
HL-60(TB) leukemia = tested on: HL-60(TB) leukemia
LOX IMVI melanoma = tested on: LOX IMVI melanoma
HOP-62 NSCLC = tested on: HOP-62 NSCLC
COLO 205 colon = tested on: COLO 205 colon
RPMI-8226 leukemia = tested on: RPMI-8226 leukemia
SW-620 colon = tested on: SW-620 colon
SR leukemia = tested on: SR leukemia
NCI-H522 lung = tested on: NCI-H522 lung
IGROV1 ovarian = tested on: IGROV1 ovarian
DU-145 prostate = tested on: DU-145 prostate
SK-MEL-5 melanoma = tested on: SK-MEL-5 melanoma
SNB-19 CNS = tested on: SNB-19 CNS

Row | Structure (SMILES) | TGI (SK-OV-3 ovarian) [µM] | TGI (MALME-3M melanoma) [µM] | TGI (SN12C renal) [µM] | TGI (BT-549 breast) [µM] | TGI (OVCAR-3 ovarian) [µM] | TGI (TK-10 renal) [µM] | TGI (HS 578T breast) [µM] | TGI (CCRF-CEM leukemia) [µM] | TGI (HL-60(TB) leukemia) [µM] | TGI (LOX IMVI melanoma) [µM] | TGI (HOP-62 NSCLC) [µM] | TGI (COLO 205 colon) [µM] | TGI (RPMI-8226 leukemia) [µM] | TGI (SW-620 colon) [µM] | TGI (SR leukemia) [µM] | TGI (NCI-H522 lung) [µM] | TGI (IGROV1 ovarian) [µM] | TGI (DU-145 prostate) [µM] | TGI (SK-MEL-5 melanoma) [µM] | TGI (SNB-19 CNS) [µM]
1 | CCc1c(N=[N+]=[N-])c2ccccc2oc1=O | > 100 | > 100 | > 100 | > 100 | > 100 | > 100 | > 100 | > 100 | > 100 | > 100 | > 100 | > 100 | > 100 | > 100 | > 100 | > 100 | > 100 | > 100 |  | 
2 | CC(=O)OC1=C(c2ccccc2)S(=O)(=O)c2ccccc21 |  | > 100 |  | > 100 | > 100 | > 100 | > 100 | > 100 | > 100 | > 100 | > 100 | > 100 | > 100 | > 100 | > 100 | > 100 | > 100 | > 100 | > 100 | > 100
3 | C/C(=N\NC(N)=O)C(CN1CCOCC1)C(c1ccccc1)c1c(O)c2ccccc2oc1=O (stereo not drawn) | > 100 | > 100 |  | > 100 | > 100 | > 100 | > 100 | > 100 | > 100 | > 100 |  | > 100 | > 100 | > 100 | > 100 | > 100 | > 100 | > 100 | > 100 | > 100
4 | CCOC(=O)c1sc(N)nc1N1CCCC1 | > 100 | > 100 | > 100 | > 100 | > 100 | > 100 | > 100 | > 100 | > 100 | > 100 | > 100 | > 100 | > 100 | > 100 | > 100 | > 100 | > 100 | > 100 | > 100 | > 100
5 | COc1ccc(CCN2C(=O)C(=O)C(C(=O)c3ccccc3)C2c2ccccc2)cc1OC (stereo not drawn) | > 100 | > 100 | > 100 | > 100 | > 100 | > 100 | > 100 | > 100 | > 100 | > 100 | > 100 | > 100 | > 100 | > 100 | > 100 | > 100 | > 100 | > 100 | > 100 | > 100
6 | CCCCCCCC(=O)N1C2CC3CCC2(CS1(=O)=O)C3(C)C (stereo not drawn) | > 100 | 34 | 49.1 | 71.6 | > 10 | > 100 | > 100 | 44.8 | 41.9 |  | 44.3 | 41.2 | 41.5 | 61.6 | 40.8 | 48.5 | > 100 | > 100 | 34.4 | 76.5
7 | CC(=O)OCC1OC(NC(=S)Nn2c(-c3ccccc3)nc3ccccc3c2=O)C(OC(C)=O)C(OC(C)=O)C1OC(C)=O (stereo not drawn) | > 100 | > 100 | > 100 | > 100 | > 100 |  | > 100 | > 100 | > 100 | > 100 | > 100 | > 100 | > 100 | > 100 | 88.7 | > 100 | > 100 | > 100 | > 100 | > 100
8 | COc1cccc(O)c1-c1cc(=O)c2c(O)c(OC)c(OC)c(OC)c2o1 | 89.3 | > 100 | 93.4 | 73.6 | 66.3 | > 100 | > 100 | > 100 | 46.7 | > 100 | 44.4 | 39.1 | 58.4 | > 100 | 40.1 | 87.9 | > 100 | 58.9 | 39.4 | > 100
9 | Cc1ccc(Nc2nc3ccccc3nc2NS(=O)(=O)c2ccc(N)cc2)cc1 | > 100 | > 100 | > 100 | > 100 | > 100 | > 100 | > 100 | 70.7 | 80.5 | > 100 | > 100 | > 100 | > 100 | > 100 | > 100 | > 100 | > 100 | > 100 | > 100 | > 100
10 | O=C(NNC(=O)c1cc2ccccc2[nH]1)c1cc2ccccc2[nH]1 | > 100 | > 100 | > 100 | > 100 | > 100 | > 100 | > 100 | > 100 | > 100 | > 100 | > 100 | > 100 | > 100 | > 100 | > 100 | > 100 | > 100 | > 100 | > 100 | > 100
11 | C[C@H]1CC(=O)C[C@@H]2CC[C@@H]3[C@H](CC[C@]4(C)C(OC(=O)c5cccc6c(=O)c7ccccc7[nH]c56)CC[C@@H]34)[C@]21C (stereo partly drawn) | > 100 | > 100 | > 100 | > 100 | > 100 | > 100 | > 100 | 73.2 | 36.5 | > 100 | > 100 | 62.9 | 55.6 | > 100 | 21.6 | 72.8 | > 100 | > 100 | 40.3 | > 100
12 | COCc1nc(C#N)c(N)o1 | > 10 | > 10 | > 10 | > 10 |  | > 10 | > 10 | > 10 | > 10 | > 10 | > 10 | > 10 | > 10 | > 10 | > 10 | > 10 | > 10 | > 10 | > 10 | > 10
13 | NS(=O)(=O)c1ccc(NCc2cccc3c(=O)c4ccc(Cl)cc4oc23)cc1 | > 100 | > 66.5 | > 100 | > 96.7 | > 100 | > 100 | 82.3 | > 52.6 | 9.47 | > 100 | > 100 | > 100 | > 92.2 | > 100 | > 51.3 | 99.7 | > 68.8 | > 100 | > 100 | > 61.8
14 | O=[N+]([O-])c1cccc(-c2ccc([C@H]3CC(c4ccc(Cl)cc4)=NN3)o2)c1 | 54.5 | 71.6 | 53.4 | 74.9 | 43.3 | 42.8 | > 100 | 90.8 | 24.1 |  | 57.9 | > 100 | 45.6 | > 100 | 32.7 | 59.1 | > 100 | 50.1 | 32.2 | 89.7
15 | COc1ccc2nc3cc(Cl)ccc3c(NCCCN(C)CCCNc3ccc4ncn5c6ccccc6c(=O)c3c45)c2c1 | 6.04 | 7.09 | 5.28 | 4.59 | 6.79 | 1.76 | > 19.5 | > 25 | 2.2 |  | 6.1 | 3.66 | > 25 | > 25 | > 7.84 | 1.73 | 4.37 | 7.19 | 4.62 | 5.86
16 | O=C(c1ccccc1)N1N=C(C(F)(F)F)CC1(O)C(F)(F)F (stereo not drawn) |  | > 100 | > 100 | > 100 | > 100 | > 100 | > 100 | > 100 | > 100 | > 100 | > 100 | > 100 | > 100 | > 100 | > 100 | > 100 |  | > 100 |  | > 100
17 | C[C@@H](NC(=O)Nc1cccc(C(=O)Nc2cc(C(C)(C)C)ccc2C(=O)O)n1)c1ccccc1 | > 100 | > 100 | > 100 | > 100 | 51.1 |  | > 100 |  | > 100 | 36.7 | 86.1 | 60.6 | > 100 | > 100 | > 100 | > 100 | > 100 | > 100 | > 100 | > 100
18 | CCOC(=O)n1c(=O)nc2c3c(ncn21)Oc1c(c(-c2ccccc2)nn1-c1ccccc1)C3c1ccc(Cl)cc1 (stereo not drawn) | 6.47 | 3.24 | 3.21 | 2.95 | 2.79 | 3.07 | 3.37 | 2.72 | 2.78 | 2.78 | 3.15 | 2.59 | 3.3 | 3.09 | 3.5 | 3.11 |  | 3.09 | 3.07 | 2.95
19 | C=C1C(=O)O[C@H]2[C@@H]3O[C@@](C)(CC/C=C(\C)CCC[C@@H]2C)[C@H](O)C[C@@H]13 | 32.5 | 53.3 | 8.15 | 8.1 | 9.54 | 17.4 | 25.9 | 81.5 | 53 | 16.2 | 23.1 | 8.86 |  | > 100 | > 100 | 5.67 | 35.6 | 27.2 | 6.36 | 
20 | CC(C(=O)NCNC(=O)c1ccccc1)C(=O)NCc1ccccc1 (stereo not drawn) | > 100 | > 100 | > 100 | > 100 |  | > 100 | > 100 | > 100 | > 100 |  |  | > 100 | > 100 | > 100 | > 100 | > 100 | > 100 | > 100 | > 100 | > 100
21 | COC(=O)[C@]1(CCC(C)=O)C(=O)C=CN([C@H](C)c2ccccc2)[C@@H]1Cc1ccc(OC)c(OCc2ccccc2)c1I | > 100 |  | 35 | 46.3 | 31 | 56.8 | 79.4 | > 100 | 69.8 | 31 | 51.7 | 47.7 | 51.7 | > 100 | > 100 | 41.6 | 29.1 | 37.5 | 26.9 | 81.8
22 | COc1ccc2c(c1)SC1=Nc3sc4cc(OC)ccc4[n+]3CN12 | > 100 | 57 | > 100 | > 100 | 21.5 | > 100 | > 100 | > 100 | 63.5 |  | > 100 | 11.6 | 88.4 | > 100 | 24.4 | 8.5 | > 100 | > 100 | 15.6 | > 100
23 | O=[N+]([O-])c1ccc(-c2ccc([C@H]3CC(c4cc(F)c(Cl)cc4Cl)=NN3)o2)cc1 | > 100 | > 100 | > 100 | 90.9 | > 100 | > 100 | > 100 | 35.1 | 16.2 | > 100 | > 100 |  | > 100 | > 100 | 77.1 | > 100 | > 100 | > 100 | 32.2 | > 100
24 | CSc1ccc(/C=C2\N=C(c3ccccc3)N(NC(=O)c3c(Cl)c(Cl)c(Cl)c(Cl)c3-c3nc4ccccc4[nH]3)C2=O)cc1 | > 100 | > 100 | > 100 | > 100 | > 100 |  | > 100 | > 100 | 61 | > 100 | > 100 | 95.9 |  | > 100 | > 100 | > 100 | > 100 | > 100 | > 100 | > 100
